Source: the supplement of paper PMC11665569

Assays:
H1373 [1] = conditions: treatment time: 5 days
Procedure: (§1)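 CCK-8 viability of KRAS G12C-mutant cancer cell lines transfected with control, YAP/TAZ or TEAD1-4 siRNAs and treated with KRAS G12C inhibitors for 5 days; IC50 fitted in Prism after normalising absorbance at 450 nm to vehicle control.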

H1792 = conditions: siRNA knockdown (Con = control): Con; treatment time: 5 days
Procedure: as §1

H2030 = conditions: treatment time: 5 days
Procedure: as §1

H358 = conditions: treatment time: 5 days
Procedure: as §1

KYSE410 = conditions: treatment time: 5 days
Procedure: as §1

MIAPACA2 = conditions: treatment time: 5 days
Procedure: as §1

SW1573 [2] = conditions: treatment time: 5 days
Procedure: as §1

SW1573 [3] = assay: relative viability (fraction of vehicle control); higher = more viable / less inhibited; conditions: treatment time: 5 days
Procedure: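 CCK-8 viability of SW1573 cells transfected with control, YAP/TAZ or TEAD1-4 siRNAs and treated with KRAS G12C inhibitors for 5 days. Values are normalised to vehicle control.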

H1373 [4] = assay: as above; conditions: treatment time: 5 days
Procedure: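 CCK-8 viability of H1373 cells with empty vector or constitutively active YAP S127A, treated with KRAS G12C inhibitors for 5 days, normalised to vehicle control.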

C=CC(=O)N1CCN(c2nc(=O)n(-c3c(C)ccnc3C(C)C)c3nc(-c4c(O)cccc4F)c(F)cc23)[C@@H](C)C1 [AMG510]
Conditions | IC50 (cell viability, 5 days) [nM] | relative viability
H358, siRNA knockdown (Con = control): Con | 7.18 | –
H358, siRNA knockdown (Con = control): TEAD1234_si1 | 4.08 | –
H358, siRNA knockdown (Con = control): TEAD1234_si2 | 4.17 | –
H358, siRNA knockdown (Con = control): YAP_WWTR1_si1 | 4.08 | –
H358, siRNA knockdown (Con = control): YAP_WWTR1_si2 | 2.96 | –
H1373 [1], siRNA knockdown (Con = control): Con | 30.7 | –
H1373 [1], siRNA knockdown (Con = control): YAP_WWTR1_si1 | 10.2 | –
H1373 [1], siRNA knockdown (Con = control): YAP_WWTR1_si2 | 4.31 | –
H1373 [4], log10 concentration (uM): 0, ectopic expression: YAP S127A | – | 0.575
H1373 [4], log10 concentration (uM): 0, ectopic expression: empty vector (YAP experiment) | – | 0.267
H1373 [4], log10 concentration (uM): 1, ectopic expression: YAP S127A | – | 0.47
H1373 [4], log10 concentration (uM): 1, ectopic expression: empty vector (YAP experiment) | – | 0.245
H1373 [4], log10 concentration (uM): 1.301029996, ectopic expression: YAP S127A | – | 0.25
H1373 [4], log10 concentration (uM): 1.301029996, ectopic expression: empty vector (YAP experiment) | – | 0.12
H1373 [4], log10 concentration (uM): -1, ectopic expression: YAP S127A | – | 0.581
H1373 [4], log10 concentration (uM): -1, ectopic expression: empty vector (YAP experiment) | – | 0.351
H1373 [4], log10 concentration (uM): -1.30103, ectopic expression: YAP S127A | – | 0.619
H1373 [4], log10 concentration (uM): -1.30103, ectopic expression: empty vector (YAP experiment) | – | 0.407
H1373 [4], log10 concentration (uM): -2, ectopic expression: YAP S127A | – | 0.636
H1373 [4], log10 concentration (uM): -2, ectopic expression: empty vector (YAP experiment) | – | 0.624
H1373 [4], log10 concentration (uM): -2.30103, ectopic expression: YAP S127A | – | 0.71
H1373 [4], log10 concentration (uM): -2.30103, ectopic expression: empty vector (YAP experiment) | – | 0.68
H1373 [4], log10 concentration (uM): -3, ectopic expression: YAP S127A | – | 0.834
H1373 [4], log10 concentration (uM): -3, ectopic expression: empty vector (YAP experiment) | – | 0.937
H1373 [4], log10 concentration (uM): -4, ectopic expression: YAP S127A | – | 0.986
H1373 [4], log10 concentration (uM): -4, ectopic expression: empty vector (YAP experiment) | – | 1.01
H2030, siRNA knockdown (Con = control): TEAD1234_si2 | 10.9 | –
H2030, siRNA knockdown (Con = control): YAP_WWTR1_si1 | 8.18 | –
KYSE410, siRNA knockdown (Con = control): Con | 3540 | –
KYSE410, siRNA knockdown (Con = control): TEAD1234_si1 | 853 | –
KYSE410, siRNA knockdown (Con = control): YAP_WWTR1_si1 | 163 | –
KYSE410, siRNA knockdown (Con = control): YAP_WWTR1_si2 | 33.5 | –
MIAPACA2, siRNA knockdown (Con = control): Con | 163 | –
MIAPACA2, siRNA knockdown (Con = control): TEAD1234_si1 | 66.1 | –
MIAPACA2, siRNA knockdown (Con = control): TEAD1234_si2 | 57.5 | –
MIAPACA2, siRNA knockdown (Con = control): YAP_WWTR1_si1 | 46.3 | –
MIAPACA2, siRNA knockdown (Con = control): YAP_WWTR1_si2 | 69.9 | –
SW1573 [2], siRNA knockdown (Con = control): Con | 12300 | –
SW1573 [2], siRNA knockdown (Con = control): TEAD1234_si1 | 10.9 | –
SW1573 [2], siRNA knockdown (Con = control): TEAD1234_si2 | 4.11 | –
SW1573 [2], siRNA knockdown (Con = control): YAP_WWTR1_si1 | 2.87 | –
SW1573 [2], siRNA knockdown (Con = control): YAP_WWTR1_si2 | 3.42 | –
SW1573 [3], log10 concentration (uM): 0, siRNA knockdown: TEAD1-4 siRNA 1 | – | 0.313
SW1573 [3], log10 concentration (uM): 0, siRNA knockdown: TEAD1-4 siRNA 2 | – | 0.433
SW1573 [3], log10 concentration (uM): 0, siRNA knockdown: YAP/TAZ siRNA 1 | – | 0.262
SW1573 [3], log10 concentration (uM): 0, siRNA knockdown: YAP/TAZ siRNA 2 | – | 0.182
SW1573 [3], log10 concentration (uM): 0, siRNA knockdown: negative control siRNA | – | 0.809
SW1573 [3], log10 concentration (uM): 1, siRNA knockdown: TEAD1-4 siRNA 1 | – | 0.397
SW1573 [3], log10 concentration (uM): 1, siRNA knockdown: TEAD1-4 siRNA 2 | – | 0.515
SW1573 [3], log10 concentration (uM): 1, siRNA knockdown: YAP/TAZ siRNA 1 | – | 0.554
SW1573 [3], log10 concentration (uM): 1, siRNA knockdown: YAP/TAZ siRNA 2 | – | 0.357
SW1573 [3], log10 concentration (uM): 1, siRNA knockdown: negative control siRNA | – | 0.782
SW1573 [3], log10 concentration (uM): 1.301029996, siRNA knockdown: TEAD1-4 siRNA 1 | – | 0.138
SW1573 [3], log10 concentration (uM): 1.301029996, siRNA knockdown: TEAD1-4 siRNA 2 | – | 0.288
SW1573 [3], log10 concentration (uM): 1.301029996, siRNA knockdown: YAP/TAZ siRNA 1 | – | 0.337
SW1573 [3], log10 concentration (uM): 1.301029996, siRNA knockdown: YAP/TAZ siRNA 2 | – | 0.257
SW1573 [3], log10 concentration (uM): 1.301029996, siRNA knockdown: negative control siRNA | – | 0.461
SW1573 [3], log10 concentration (uM): -1, siRNA knockdown: TEAD1-4 siRNA 1 | – | 0.338
SW1573 [3], log10 concentration (uM): -1, siRNA knockdown: TEAD1-4 siRNA 2 | – | 0.365
SW1573 [3], log10 concentration (uM): -1, siRNA knockdown: YAP/TAZ siRNA 1 | – | 0.164
SW1573 [3], log10 concentration (uM): -1, siRNA knockdown: YAP/TAZ siRNA 2 | – | 0.111
SW1573 [3], log10 concentration (uM): -1, siRNA knockdown: negative control siRNA | – | 0.783
SW1573 [3], log10 concentration (uM): -1.30103, siRNA knockdown: TEAD1-4 siRNA 1 | – | 0.346
SW1573 [3], log10 concentration (uM): -1.30103, siRNA knockdown: TEAD1-4 siRNA 2 | – | 0.421
SW1573 [3], log10 concentration (uM): -1.30103, siRNA knockdown: YAP/TAZ siRNA 1 | – | 0.183
SW1573 [3], log10 concentration (uM): -1.30103, siRNA knockdown: YAP/TAZ siRNA 2 | – | 0.147
SW1573 [3], log10 concentration (uM): -1.30103, siRNA knockdown: negative control siRNA | – | 0.792
SW1573 [3], log10 concentration (uM): -2, siRNA knockdown: TEAD1-4 siRNA 1 | – | 0.562
SW1573 [3], log10 concentration (uM): -2, siRNA knockdown: TEAD1-4 siRNA 2 | – | 0.502
SW1573 [3], log10 concentration (uM): -2, siRNA knockdown: YAP/TAZ siRNA 1 | – | 0.323
SW1573 [3], log10 concentration (uM): -2, siRNA knockdown: YAP/TAZ siRNA 2 | – | 0.244
SW1573 [3], log10 concentration (uM): -2, siRNA knockdown: negative control siRNA | – | 0.886
SW1573 [3], log10 concentration (uM): -2.30103, siRNA knockdown: TEAD1-4 siRNA 1 | – | 0.672
SW1573 [3], log10 concentration (uM): -2.30103, siRNA knockdown: TEAD1-4 siRNA 2 | – | 0.725
SW1573 [3], log10 concentration (uM): -2.30103, siRNA knockdown: YAP/TAZ siRNA 1 | – | 0.437
SW1573 [3], log10 concentration (uM): -2.30103, siRNA knockdown: YAP/TAZ siRNA 2 | – | 0.37
SW1573 [3], log10 concentration (uM): -2.30103, siRNA knockdown: negative control siRNA | – | 0.934
SW1573 [3], log10 concentration (uM): -3, siRNA knockdown: TEAD1-4 siRNA 1 | – | 0.815
SW1573 [3], log10 concentration (uM): -3, siRNA knockdown: TEAD1-4 siRNA 2 | – | 0.893
SW1573 [3], log10 concentration (uM): -3, siRNA knockdown: YAP/TAZ siRNA 1 | – | 0.615
SW1573 [3], log10 concentration (uM): -3, siRNA knockdown: YAP/TAZ siRNA 2 | – | 0.587
SW1573 [3], log10 concentration (uM): -3, siRNA knockdown: negative control siRNA | – | 1
SW1573 [3], log10 concentration (uM): -4, siRNA knockdown: TEAD1-4 siRNA 1 | – | 0.98
SW1573 [3], log10 concentration (uM): -4, siRNA knockdown: TEAD1-4 siRNA 2 | – | 0.974
SW1573 [3], log10 concentration (uM): -4, siRNA knockdown: YAP/TAZ siRNA 1 | – | 0.969
SW1573 [3], log10 concentration (uM): -4, siRNA knockdown: YAP/TAZ siRNA 2 | – | 0.928
SW1573 [3], log10 concentration (uM): -4, siRNA knockdown: negative control siRNA | – | 1.02

Conditions | IC50 (cell viability, 5 days) [nM]
H1792 | 6330
